# Assay results published in patent publication US12049474B2, “Nucleoside prodrugs and uses related thereto” (Emory University, priority 2019, dated 2024).
# Several values for one entry are separate records, joined by “and”; a condition that tells them apart may be missing. Identical values can stand only once.
# Columns and labels:
# HEK293 cells = details: 50% cytotoxic concentration; italicized results: absence of human serum albumin
# CYP3A4 = CYP3A4 (Homo sapiens (Human), UniProt P08684); experiment: Fluorometric CYP450 enzyme inhibition assay, CYP3A4; format: biochemical; details: human recombinant CYP3A4, BFC substrate; read-out: CYP450 IC50 3A4
# Sequence of CYP3A4 (P08684 whole entry, canonical isoform): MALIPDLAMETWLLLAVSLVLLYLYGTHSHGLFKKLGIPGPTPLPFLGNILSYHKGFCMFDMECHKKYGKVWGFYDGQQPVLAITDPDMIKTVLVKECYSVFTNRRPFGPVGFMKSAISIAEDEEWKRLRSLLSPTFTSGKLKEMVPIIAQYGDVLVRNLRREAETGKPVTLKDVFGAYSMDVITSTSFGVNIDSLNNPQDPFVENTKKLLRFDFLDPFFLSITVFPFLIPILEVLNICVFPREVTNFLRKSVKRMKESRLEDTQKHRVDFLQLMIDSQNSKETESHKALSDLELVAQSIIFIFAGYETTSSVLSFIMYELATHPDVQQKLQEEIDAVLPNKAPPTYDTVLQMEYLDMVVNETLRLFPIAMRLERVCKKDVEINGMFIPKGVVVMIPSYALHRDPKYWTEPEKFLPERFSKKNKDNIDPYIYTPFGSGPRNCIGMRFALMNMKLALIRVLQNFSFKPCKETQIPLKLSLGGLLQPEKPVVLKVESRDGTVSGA
# Description: (§1) The CYP450 inhibition assays utilized microsomes from insect cells expressing human recombinant individual cDNA-expressed CYP isoforms 3A4 and 2D6, as well as the fluorogenic probe that produces fluorescent metabolite. Standard inhibitors were co-incubated with fluorogenic substrates and their inhibitory potential (IC50) was determined. Assay conditions in terms of CYP450 protein concentration and time of incubation were standardized, enzyme kinetics parameters of each fluorescent probe substrate were estimated and IC50 values of inhibitors were determined and validated on different days to check reproducibility.
# (§2) A 100 mM sodium phosphate buffer was prepared and adjusted to pH 7.4. In a separate falcon tube, a 2× enzyme/substrate (E/S) solution was prepared in phosphate buffer. The final concentration of CYP2D6 (CORNING®) and […] (AMMC) was 10 nM and 4 μM, and CYP3A4 (CORNING®) and 7-benzyloxy-4-(trifluoromethyl) coumarin (BFC) was 20 nM and 40 μM, respectively. In a separate falcon tube, a 2×NADPH regenerating system (NRS) was prepared in phosphate buffer. The final concentration for each component in the assay was as follows: • CYP2D6 assay: 0.008 mM NADPH, 3.3 mM glucose 6-phosphate, 0.4 U of glucose-6-phosphate dehydrogenase per mL
# Both enzymatic assays were conducted in a 96-well microtiter plate (Black, CORNING® COSTAR®) with a final volume of 100 μL. Preparation of the plate began with the addition of 74 μL of the E/S in the first well, and 50 μL to all subsequent wells (from 2-11). […] A 1:3 serial dilution of the test compound was conducted by removing 25 μL from the first well and diluting it with the second and so forth until the tenth row. Final concentrations yielded a range from 200 μM-0.01 μM. Well no. 11 contained no inhibitor, and well no. 12 contained no enzyme. Both were used as controls for background fluorescence. The plate was incubated for 30 min at 37° C. After incubation, the reaction was initiated by the addition of 50 μL of the 2×NRS to each well.
# Immediately (within 1 min) the fluorescence was measured using a microplate reader (BIOTEK® Synergy Neo2). […] Data was exported and analyzed using Graph Pad Prism 7. […] The IC50 value was derived after the data was fitted on a 10-point curve using a four-parameter logistic regression model.
# CYP2D6 = CYP2D6 (Homo sapiens (Human), UniProt P10635); experiment: biochemical; format: biochemical; details: human recombinant CYP2D6, AMMC substrate; read-out: CYP450 IC50 2D6
# Sequence of CYP2D6 (P10635 whole entry): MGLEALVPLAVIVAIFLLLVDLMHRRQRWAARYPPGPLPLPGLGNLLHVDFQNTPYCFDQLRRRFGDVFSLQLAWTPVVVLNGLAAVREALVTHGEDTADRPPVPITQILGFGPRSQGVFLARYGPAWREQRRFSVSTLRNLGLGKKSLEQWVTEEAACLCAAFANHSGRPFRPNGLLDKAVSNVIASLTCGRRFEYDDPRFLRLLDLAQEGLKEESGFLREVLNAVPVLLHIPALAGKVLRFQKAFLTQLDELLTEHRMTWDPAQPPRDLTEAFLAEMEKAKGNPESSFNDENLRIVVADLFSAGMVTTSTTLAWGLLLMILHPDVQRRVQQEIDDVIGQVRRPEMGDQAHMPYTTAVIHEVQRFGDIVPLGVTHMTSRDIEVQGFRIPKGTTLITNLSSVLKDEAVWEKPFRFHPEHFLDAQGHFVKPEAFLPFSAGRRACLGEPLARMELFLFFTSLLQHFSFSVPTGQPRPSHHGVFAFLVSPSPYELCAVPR
# Description: as §1, §2
# Both enzymatic assays were conducted in a 96-well microtiter plate (Black, CORNING® COSTAR®) with a final volume of 100 μL. Preparation of the plate began with the addition of 74 μL of the E/S in the first well, and 50 μL to all subsequent wells (from 2-11). The test compounds (1 μL) were dissolved in the first well to give the first row a final volume of 75 μL. A 1:3 serial dilution of the test compound was conducted by removing 25 μL from the first well and diluting it with the second and so forth until the tenth row. Final concentrations yielded a range from 200 μM-0.01 μM. Well no. 11 contained no inhibitor, and well no. 12 contained no enzyme. Both were used as controls for background fluorescence. The plate was incubated for 30 min at 37° C. After incubation, the reaction was initiated by the addition of 50 μL of the 2×NRS to each well.
# Immediately (within 1 min) the fluorescence was measured using a microplate reader (BIOTEK® Synergy Neo2). CYP2D6 was monitored at Ex/Em=410/460 nm, and CYP3A4 monitored at Ex/Em=410/538 nm in kinetic mode that scanned every 5 min for 60 mins. Data was exported and analyzed using Graph Pad Prism 7. […] The IC50 value was derived after the data was fitted on a 10-point curve using a four-parameter logistic regression model.
# [1] = Metabolic stability assay in human liver microsomes (HLM); format: in vitro ADME; details: NADPH, sampled 0-120 min; for HLM t1/2: 3 μM test compound; for half-life at 3 µM: pH 7.4, 3 μM test compound, read-out: HLM t1/2
# Description: The LC-MS/MS analysis was performed using Agilent 1260 Infinity II HPLC, coupled with an Agilent G6460 triple quadrupole mass spectrometer (Agilent Technologies, USA). All the data were acquired employing Agilent 6460 Quantitative Analysis data processing software.
# Reverse-phase HPLC separation for each compound was achieved either on an Agilent Porshell 120 EC-C8 column (2.1×50 mm, 2.7 μm), or on an Agilent Zorbax XDB C18 column (2.1×50 mm, 3.5 μm) with a mobile phase composed of methanol-water-formic acid or acetonitrile-water-formic acid (0.1%) at a flow rate of 0.5 mL/min (changes for some compounds). Each method was developed in the presence of an internal standard (ISTD) d5-7-ethoxy coumarin. The column temperature was maintained at 40° C. for most of the samples otherwise noted. The detection was operated in the Agilent JetStream electrospray positive ionization using multiple reaction monitoring mode (MRM).
# Other MS conditions were as follows: dwell time 100 ms; gas flow 10 L/min; nebulizer pressure 45 psi; delta EMV 200 V; fragmentor voltage and collision energy for individual compounds vary.
# Test compounds were dissolved in 100% DMSO or 100% MeOH to make 10 mM stock solutions. Verapamil (Sigma Aldrich) aided as a positive control and was dissolved in 100% DMSO to make 10 mM stock solutions. The 10 mM stock solution of test and control compounds were further diluted in potassium phosphate buffer (100 mM, pH 7.4) to 500 μM to ensure the organic solvent content was <0.2%. Human liver microsomes (HLMs) were purchased from Xenotech at 20 mg/mL. NADPH (Sigma Aldrich) 10 mM stocks were prepared in deionized water.
# The HLM assay was prepared in a 1.5 mL Eppendorf tube with a final volume of 1100 μL for duplicate runs. Each reaction contained phosphate buffer (928.4 μL), liver microsomes (55 μL), and test compound resulting in a final concentration of 3 μM (6.6 μL of 500 μM). The reaction was initiated with 110 μL of 10 mM NADPH. Aliquots (100 μL) were removed in duplicate at 0, 15, 30, 60, 120 min (for prodrug compounds) and 0, 5, 10, 15, 30 min (verapamil, positive control compound) time intervals and quenched in cold […] of 100% methanol which contained internal standard (ISTD: d5-7-ethoxy coumarin 4 μM). Before centrifugation each of the aliquoted tubes were vortexed to make sure compounds were in the solution. The aliquots were centrifuged at 12,000 g for 5 min and the supernatant removed and placed in an LC-MS vial. Each time point was assessed using LC-MS and the area, based on the extracted ion, was integrated with respect to the ISTD. Positive controls were conducted at a final volume of 550 μL to give each time point in a single run. A no-NADPH negative control with test or control compound was performed in a single run (150 μL) at the longest time point. Controls were processed and analyzed like the test compounds. Each time point was run in duplicates followed by in-between blank washes to avoid the carryover and to equilibrate the column.
# HIV = experiment: microbe, parasite or virus in culture; format: cell-based; details: pseudoviral particles, HEK293 cells; italicized results: absence of human serum albumin; read-out: HIV IC50
Compound,CC50 (HEK293 cells),IC50 (CYP3A4),IC50 (CYP2D6),HLM t1/2 [1],half-life at 3 µM [1],IC50 (HIV)
"C#CCCCCCCCCCCCCCCCCOP(=O)(O)CO[C@H](C)Cn1cnc2c(N)ncnc21.N [Compound B1-1-024, Ammonium octadec-17-yn-1-yl ((((R)-1-(6-amino-9H-purin-9-yl)propan-2-yl)oxy)methyl)phosphonate]",> 100 µM,18.7 µM,2.39 µM,>2 h,,
"C#CCCCCCCCCCCCCCCCCCCOP(=O)(O)CO[C@H](C)Cn1cnc2c(N)ncnc21.N [Compound B1-1-065, Ammonium icos-19-yn-1-yl (R)-(((1-(6-amino-9H-purin-9-yl)propan-2-yl)oxy)methyl)phosphonate]",99.5 µM,> 50 µM,21.9 µM,>2 h,,
"C#CCCCCCCCCCCCCCOP(=O)(O)CO[C@H](C)Cn1cnc2c(N)ncnc21.N [EJM-8-006, Ammonium pentadec-14-yn-1-yl (R)-(((1-(6-amino-9H-purin-9-yl)propan-2-yl)oxy)methyl)phosphonate]",> 100 µM,54.8 µM,84.9 µM,1.57 h,,
"C[C@H](Cn1cnc2c(N)ncnc21)OCP(=O)(O)OCCCSCCCCCCCCCCCCC#C[Si](C)(C)C.N [MD-1-187, Ammonium 3-((14-(trimethylsilyl)tetradec-13-yn-1-yl)thio)propyl (R)-(((1-(6-amino-9H-purin-9-yl)propan-2-yl)oxy)methyl)phosphonate]",,> 20 µM,> 20 µM,,> 2 h,
"C[C@H](Cn1cnc2c(N)ncnc21)OCP(=O)(O)OCCCSCCCCCCCCCCCOc1ccccc1.N [MD-1-223, Ammonium 3-((11-phenoxyundecyl)thio)propyl (R)-(((1-(6-amino-9H-purin-9-yl)propan-2-yl)oxy)methyl)phosphonate]",,> 20 µM,> 20 µM,,0.25 h,
"C#CCCCCCCCCCCCCCCOCCCOP(=O)(O)CO[C@H](C)Cn1cnc2c(N)ncnc21.N [MD-5-72, Ammonium 3-(hexadec-15-yn-1-yloxy)propyl (R)-(((1-(6-amino-9H-purin-9-yl)propan-2-yl)oxy)methyl)phosphonate]",> 100 µM,> 20 µM,> 20 µM,>2 h,,
"C[C@H](Cn1cnc2c(N)ncnc21)OCP(=O)(O)OCCCCCCCCCCCCCCCCC#C[Si](C)(C)C.N [NP-PD-042, Ammonium [(1R)-2-(6-aminopurin-9-yl)-1-methyl-ethoxy]methyl-(18-trimethylsilyloctadec-17-ynoxy)phosphinate]",68.1 µM,27 µM,27.1 µM,>2 h,,
"C[C@H](Cn1cnc2c(N)ncnc21)OCP(=O)(O)OCCCCCCCCCCCCCCCCCC[Si](C)(C)C.N [NP-PD-051, Ammonium [(1R)-2-(6-aminopurin-9-yl)-1-methyl-ethoxy]methyl-(18-trimethylsilyloctadecoxy)phosphinate]",,51.4 µM,16.4 µM,,> 2 h,
"C[C@H](Cn1cnc2c(N)ncnc21)OCP(=O)(O)OCCCCCCCCCCCCCCCCCC#CC(F)(F)F.N [NP-PD-102, Ammonium [(1R)-2-(6-aminopurin-9-yl)-1-methyl-ethoxy]methyl-(20,20,20-trifluoroicos-18-ynoxy)phosphinate]",78.7 µM,> 20 µM,> 20 µM,>2 h,,
"C[C@H](Cn1cnc2c(N)ncnc21)OCP(=O)(O)OCCCCCCCCCCCCCCCCCCCC(F)(F)F.N [NP-PD-105, ammonium [(1R)-2-(6-aminopurin-9-yl)-1-methyl-ethoxy]methyl-(20,20,20-trifluoroicosoxy)phosphinate]",72.4 µM,> 20 µM,> 20 µM,>2 h,,
"C[C@H](Cn1cnc2c(N)ncnc21)OCP(=O)(O)OCCCOCCCCCCCCCCCCCC#CC(F)(F)F.N [NP-PD-149, Ammonium [(1R)-2-(6-aminopurin-9-yl)-1-methyl-ethoxy]methyl-[3-(16,16,16-trifluorohexadec-14-ynoxy)propoxy]phosphinate]",> 100 µM,12 µM,> 20 µM,>2 h,,
"C[C@H](Cn1cnc2c(N)ncnc21)OCP(=O)(O)OCCCOCCCCCCCCCCCCCCCC(F)(F)F.N [NP-PD-158, Ammonium [(1R)-2-(6-aminopurin-9-yl)-1-methyl-ethoxy]methyl-[3-(16,16,16-trifluorohexadecoxy)propoxy]phosphinate]",> 100 µM,> 20 µM,> 20 µM,>2 h,,
"C[C@H](Cn1cnc2c(N)ncnc21)OCP(=O)(O)O [TFV, tenofovir, reference compound]",,45.8 µM,> 50 µM,>2 h,,2.06 µM and 1.6 µM
Ammonium 3-((14-trimethylsilyl)tetradec-13-yn-1-yl)propyl(R)-(((1-(6-amino-9H-purin-9-yl)propan-2-yl)oxy)methyl)phosphonate [NP-PD-130],,> 20 µM,21.7 µM,>2 h,,
